One series concerns the target T1, B1 bradykinin receptor (Homo sapiens, UniProt P46663).
T1 sequence (P46663 whole entry): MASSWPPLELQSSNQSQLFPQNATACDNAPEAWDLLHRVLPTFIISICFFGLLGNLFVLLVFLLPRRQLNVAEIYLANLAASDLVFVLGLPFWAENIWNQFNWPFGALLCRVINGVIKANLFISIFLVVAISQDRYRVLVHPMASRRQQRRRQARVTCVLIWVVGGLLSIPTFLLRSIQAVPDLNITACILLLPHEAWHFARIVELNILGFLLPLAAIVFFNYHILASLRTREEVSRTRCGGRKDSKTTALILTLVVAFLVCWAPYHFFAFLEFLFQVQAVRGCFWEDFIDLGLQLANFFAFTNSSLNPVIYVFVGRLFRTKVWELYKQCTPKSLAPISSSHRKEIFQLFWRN
The series is described as follows: Binding affinity against Human bradykinin receptor B1.

Series [1] in a line: Protein binding using 10% human serum. The series is classed as ADME. The conditions noted are these: for fraction unbound: 10% human serum, read-out: Protein binding (converted).
Series [2] in a line: Partition coefficient (logP). The conditions noted are these: octanol/water.
Series [3] is described as follows: Half life in Sprague Dawley rats. The series is classed as ADME. The conditions noted are these: rat, in vivo.
A short description of series [4]: Clearance in Sprague Dawley rats. Type of series: ADME, organism-based. As to conditions: rat, in vivo.
The nature of series [5]: Volume of distribution was determined in Sprague Dawley rats. The series is classed as ADME, organism-based. The conditions noted are these: rat, in vivo.
Series [6] is described as follows: Bioavailability of compound upon oral administration of 10 mg/kg (dose) in Sprague Dawley rat. The series is classed as ADME, organism-based. The conditions noted are these: in vivo.

As for `COC(=O)c1ccccc1C1=CCC(CNc2nccc(C)c2NC(=O)CC#N)CC1` (stereo unspecified), the affinity on B1 bradykinin receptor corresponds to a Ki of 25 nM. For the same compound, in series [1], the fraction unbound is 0.01. In series [2] (logP), the logP (commonly a log measure of how a compound divides between an organic and an aqueous phase) is 2.5.

`COC(=O)C1C2C=CC(CC2)C1c1ccc(CNc2nccc(C)c2NC(=O)CC#N)cc1` (racemic; form 1): the affinity at B1 bradykinin receptor, expressed as Ki, was 142 nM. For the same compound, the logP in series [2] came out at 3.1.

In the case of `COC(=O)c1ccccc1N1CCC(CNc2nccc(C)c2NC(=O)CC#N)CC1`, affinity on B1 bradykinin receptor was put at a Ki of 13 nM. In series [1], the fraction unbound is 0.07. The logP in series [2] (logP) worked out at 2.1.

Regarding `COC(=O)C1CC=CCC1c1ccc(CNc2nccc(C)c2NC(=O)CC#N)cc1` (stereo in doubt; (-)18), the Ki – broadly, the dissociation constant of the complex between target and ligand, obtained from inhibition or displacement – on B1 bradykinin receptor is 1 nM. In series [2], this compound registered a logP of 2.4.

At B1 bradykinin receptor, `COC(=O)C1=C(c2ccc(CNc3nccc(C)c3NC(=O)CC#N)cc2)CCC1` had a Ki of 126 nM.

`COC(=O)C1C2C=CC(CC2)C1c1ccc(CNc2nccc(C)c2NC(=O)CC#N)cc1` (racemic; form 2): the Ki on B1 bradykinin receptor was 38 nM.

The compound `COC(=O)C1=C(c2ccc(CNc3nccc(C)c3NC(=O)CC#N)cc2)CCCC1` gave a Ki at B1 bradykinin receptor of 35 nM. For the same compound, the fraction unbound in series [1] was 0.04. In series [2] (logP), this compound yielded a logP of 3.

In turn, `COC(=O)c1ccccc1N1CCC(C)(CNc2nccc(C)c2NC(=O)CC#N)CC1` registered a Ki on B1 bradykinin receptor of 3500 nM. The fraction unbound in series [1] is 0.1. In series [2] (logP), this compound returned a logP of 2.6.

`COC(=O)c1ccccc1N1CCC(O)(CNc2nccc(C)c2NC(=O)CC#N)CC1` yielded a Ki on B1 bradykinin receptor of more than 5000 nM. Moreover, the half-life (in general, the time needed for the level to fall by half in the phase considered) in series [3] was 180 min. In series [1], the fraction unbound is 0.35. Besides, the clearance – broadly, the rate of elimination divided by the concentration – in series [4] amounted to 2.2 mL/min/kg. Besides, in series [5], the Vd (as a rule, the apparent volume that relates the amount in the body to the concentration in plasma or blood) was determined as 0.24 L/kg. In addition, the bioavailability (usually dose-corrected exposure relative to a reference, in per cent) in series [6] was determined as 22%.

Compound `COC(=O)c1ccccc1N1CC=C(CNc2nccc(C)c2NC(=O)CC#N)CC1` had a Ki on B1 bradykinin receptor of 130 nM.

Compound `COC(=O)C1CCCCC1c1ccc(CNc2nccc(C)c2NC(=O)CC#N)cc1` (racemic) yielded a Ki at B1 bradykinin receptor of 2.2 nM. In series [3], this compound gave a half-life of 30 min. Moreover, the fraction unbound in series [1] was 0.05. Also, the clearance in series [4] was 30 mL/min/kg. For the same compound, the distribution volume (Vd) in series [5] came to 0.38 L/kg. This compound also had a bioavailability in series [6] of 4%. This compound displayed a logP in series [2] (logP) of 2.7.

Regarding `COC(=O)c1cccn1-c1ccc(CNc2nccc(C)c2NC(=O)CC#N)cc1`, the Ki at B1 bradykinin receptor came to 250 nM. Moreover, the fraction unbound in series [1] was 0.19. In series [2] (logP), this compound showed a logP of 2.4.

`Cc1noc([C@H]2CC=CC[C@@H]2c2ccc(CNc3nccc(C)c3NC(=O)CC#N)cc2)n1`: the Ki at B1 bradykinin receptor was 2 nM. For the same compound, the half-life in series [3] was 72 min. The fraction unbound in series [1] is 0.08. The same compound displayed a clearance in series [4] of 17 mL/min/kg. The compound also displayed a Vd in series [5] of 0.47 L/kg. This compound displayed a bioavailability in series [6] of 18%. The log partition coefficient (logP) in series [2] (logP) is 2.4.

At B1 bradykinin receptor, `COC(=O)C1CCCN1c1ccc(CNc2nccc(C)c2NC(=O)CC#N)cc1` (stereo unspecified) returned a Ki of more than 5000 nM.

On to `COC(=O)C1CC=CCC1c1ccc(CNc2nccc(C)c2NC(=O)CC#N)cc1` (racemic; trans), for which, at B1 bradykinin receptor, the affinity corresponds to a Ki of 0.83 nM. In series [3], this compound showed a half-life of 60 min. Besides, the fraction unbound in series [1] was 0.04. Also, the clearance in series [4] came to 29 mL/min/kg. Also, the Vd in series [5] was 0.55 L/kg. Further, the bioavailability in series [6] was found to be 5%. In series [2] (logP), this compound had a logP of 2.7.

`COC(=O)c1ccccc1-c1ccc(CNc2nccc(C)c2NC(=O)CC#N)cc1` returned an inhibition constant Ki on B1 bradykinin receptor of 11 nM. In series [3], this compound showed a half-life of 114 min. For the same compound, in series [1], the fraction unbound is 0.01. The clearance in series [4] is 4.3 mL/min/kg. In series [5], this compound yielded a Vd of 0.36 L/kg. This compound showed a bioavailability in series [6] of 18%. The logP in series [2] (logP) was 2.5.

The compound `COC(=O)C1CC=CCC1c1ccc(CNc2nccc(C)c2NC(=O)CC#N)cc1` (racemic; cis) had a Ki at B1 bradykinin receptor of 7 nM. The compound also returned a Protein binding in series [1] (serum) of 96%. Also, the logP in series [2] was 3.3.

For `COC(=O)c1ccccc1C1CCC(CNc2nccc(C)c2NC(=O)CC#N)CC1` (stereo unspecified), at B1 bradykinin receptor, the Ki is 385 nM. The same compound came in with a logP in series [2] (logP) of 2.7.

At B1 bradykinin receptor, `COC(=O)C1C2CCC(C2)C1c1ccc(CNc2nccc(C)c2NC(=O)CC#N)cc1` (racemic) registered a Ki of 730 nM.

In the case of `COC(=O)C1C2CCC(CC2)C1c1ccc(CNc2nccc(C)c2NC(=O)CC#N)cc1` (racemic), the Ki on B1 bradykinin receptor stood at 54 nM. Further, the logP in series [2] was 3.4.

Turning to `COC(=O)C1CCCCN1c1ccc(CNc2nccc(C)c2NC(=O)CC#N)cc1` (stereo unspecified), the Ki at B1 bradykinin receptor was more than 5000 nM. In series [1], the fraction unbound was 0.22. The logP in series [2] (logP) worked out at 2.7.

In turn, `COC(=O)C1CC=CCC1c1ccc(CNc2nccc(C)c2NC(=O)CC#N)cc1` (single isomer, unassigned; (+)) yielded a Ki on B1 bradykinin receptor of 1.3 nM. For the same compound, the logP in series [2] is on record as 2.3.

On B1 bradykinin receptor, `COC(=O)N1CCCCC1c1ccc(CNc2nccc(C)c2NC(=O)CC#N)cc1` (stereo unspecified) registered a Ki of more than 5000 nM.

The values are drawn from ChEMBL document CHEMBL1142801, “Bradykinin B1 antagonists: SAR studies in the 2,3-diaminopyridine series” (Bioorg Med Chem Lett, 2005).
